Experimental data published in patent publication US20060045953A1 (priority 2004, published 2006).

target: T1, hT1R1/hT1R3 umami receptor (Homo sapiens, UniProt Q7RTX0+Q7RTX1); experiment: In vitro hT1R1/hT1R3 umami taste receptor activation assay (FLIPR, dose response); assay type: cell-based; conditions: Table C, Umami Ureas; read-out: Umami EC50
T1 construct: expressed in transfected cells; host or cells: HEK293 derivative stably expressing Gα15, clone I-17, expression induced with mifepristone
T1 sequence (Q7RTX1 21-841): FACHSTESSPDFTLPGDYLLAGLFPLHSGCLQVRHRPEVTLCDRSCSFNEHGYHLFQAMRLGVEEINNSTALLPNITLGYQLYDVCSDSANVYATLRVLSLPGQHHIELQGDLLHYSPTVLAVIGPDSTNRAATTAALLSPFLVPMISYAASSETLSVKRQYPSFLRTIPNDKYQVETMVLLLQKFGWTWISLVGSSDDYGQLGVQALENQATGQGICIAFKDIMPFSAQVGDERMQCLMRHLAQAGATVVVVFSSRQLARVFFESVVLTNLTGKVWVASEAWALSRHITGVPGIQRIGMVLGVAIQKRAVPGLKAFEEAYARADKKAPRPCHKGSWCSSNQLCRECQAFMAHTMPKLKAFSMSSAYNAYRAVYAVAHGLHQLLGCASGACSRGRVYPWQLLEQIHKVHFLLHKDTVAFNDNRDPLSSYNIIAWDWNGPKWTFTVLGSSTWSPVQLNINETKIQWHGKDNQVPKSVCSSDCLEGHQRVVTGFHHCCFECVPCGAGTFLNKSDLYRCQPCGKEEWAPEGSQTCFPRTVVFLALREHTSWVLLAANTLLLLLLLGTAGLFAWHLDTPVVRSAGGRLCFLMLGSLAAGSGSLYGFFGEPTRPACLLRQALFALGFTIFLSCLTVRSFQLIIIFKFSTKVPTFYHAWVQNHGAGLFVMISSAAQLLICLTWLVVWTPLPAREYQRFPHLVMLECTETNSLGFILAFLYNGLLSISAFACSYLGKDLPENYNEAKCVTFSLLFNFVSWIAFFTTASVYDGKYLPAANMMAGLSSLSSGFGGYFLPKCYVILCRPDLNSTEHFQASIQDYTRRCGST
T1 sequence (Q7RTX0 21-852): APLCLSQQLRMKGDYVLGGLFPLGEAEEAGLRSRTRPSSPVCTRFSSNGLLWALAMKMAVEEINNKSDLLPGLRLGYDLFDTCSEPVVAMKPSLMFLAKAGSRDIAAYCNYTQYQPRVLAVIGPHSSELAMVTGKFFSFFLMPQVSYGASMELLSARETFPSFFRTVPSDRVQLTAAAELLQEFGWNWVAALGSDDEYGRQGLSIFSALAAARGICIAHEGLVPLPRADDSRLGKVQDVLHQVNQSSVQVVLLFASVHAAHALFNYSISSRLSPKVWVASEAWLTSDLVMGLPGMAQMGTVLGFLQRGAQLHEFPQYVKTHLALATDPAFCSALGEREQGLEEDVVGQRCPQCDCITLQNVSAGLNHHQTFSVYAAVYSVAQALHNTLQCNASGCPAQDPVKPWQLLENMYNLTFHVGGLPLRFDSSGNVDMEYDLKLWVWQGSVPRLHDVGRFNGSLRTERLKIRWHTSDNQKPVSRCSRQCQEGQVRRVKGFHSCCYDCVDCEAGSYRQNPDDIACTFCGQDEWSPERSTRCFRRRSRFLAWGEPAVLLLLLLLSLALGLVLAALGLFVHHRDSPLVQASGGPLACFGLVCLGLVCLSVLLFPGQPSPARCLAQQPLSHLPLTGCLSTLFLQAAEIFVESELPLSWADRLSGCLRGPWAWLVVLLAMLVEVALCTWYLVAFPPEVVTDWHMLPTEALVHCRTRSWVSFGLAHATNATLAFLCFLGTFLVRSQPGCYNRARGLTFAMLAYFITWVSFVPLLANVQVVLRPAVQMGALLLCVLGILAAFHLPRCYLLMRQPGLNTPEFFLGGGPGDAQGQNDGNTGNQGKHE

Row | Compound | EC50
1 | CCCC(CCC)NC(=O)Nc1ccc(C)cc1OC [Example C15, 1-(heptan-4-yl)-3-(2-methoxy-4-methylphenyl)urea] | 160 nM
2 | COc1cc(C)ccc1NC(=O)NC(C(C)C)C(C)C [Example C16, 1-(2,4-dimethylpentan-3-yl)-3-(2-methoxy-4-methylphenyl)urea] | 210 nM
3 | COc1ccccc1NC(=O)NC(C(C)C)C(C)C [Example C17, 1-(2,4-dimethylpentan-3-yl)-3-(2-methoxyphenyl)urea] | 240 nM
4 | CCCC(CCC)NC(=O)Nc1ccccc1SC [Example C18, 1-(heptan-4-yl)-3-(2-(methylthio)phenyl)urea] | 260 nM
5 | CC(C)C(NC(=O)Nc1ccc2c(c1)OCO2)C(C)C [Example C19, 1-(benzo[d][1,3]dioxol-5-yl)-3-(2,4-dimethylpentan-3-yl)urea] | 320 nM
6 | CCCC(CCC)NC(=O)Nc1ccc(C)cc1Cl [Example C20, 1-(2-chloro-4-methylphenyl)-3-(heptan-4-yl)urea] | 90 nM
7 | CCCC(CCC)NC(=O)Nc1ccc(OC)cc1Cl [Example C21, 1-(2-chloro-4-methoxyphenyl)-3-(heptan-4-yl)urea] | 110 nM
8 | CCCC(CCC)NC(=O)Nc1ccc(Cl)cc1Cl [Example C22, 1-(2,4-dichlorophenyl)-3-(heptan-4-yl)urea] | 180 nM
9 | Cc1ccc(NC(=O)N[C@@H](C)C(C)C)c(Cl)c1 [Example C23, (S)-1-(2-chloro-4-methylphenyl)-3-(3-methylbutan-2-yl)urea] | 380 nM
10 | CCC(NC(=O)Nc1ccc(C)cc1Cl)c1ccccc1 (centres unmarked) [Example C24, 1-(2-chloro-4-methylphenyl)-3-(1-phenylpropyl)urea] | 480 nM
11 | CCC(CC(C)C)NC(=O)Nc1ccc2c(c1)OCO2 (centres unmarked) [Example C25, 1-(benzo[d][1,3]dioxol-5-yl)-3-(5-methylhexan-3-yl)urea] | 480 nM
12 | CCCC(CCC)NC(=O)Nc1ccccc1OC [Example C26, 1-(heptan-4-yl)-3-(2-methoxyphenyl)urea] | 490 nM
13 | CCCC(CCC)NC(=O)Nc1ccc2c(c1)OCO2 [Example C27, 1-(benzo[d][1,3]dioxol-5-yl)-3-(heptan-4-yl)urea] | 540 nM
14 | CCCC(NC(=O)Nc1ccc2c(c1)OCO2)C(C)C (centres unmarked) [Example C28, 1-(benzo[d][1,3]dioxol-5-yl)-3-(2-methylhexan-3-yl)urea] | 570 nM
15 | CCCC(CCC)NC(=O)Nc1ccc(C)cc1C [Example C29, 1-(2,4-dimethylphenyl)-3-(heptan-4-yl)urea] | 790 nM
16 | C=Cc1ccccc1NC(=O)NC(CCC)CCC [Example C30, 1-(heptan-4-yl)-3-(2-vinylphenyl)urea] | 790 nM

same assay, conditions: Table D, Umami Acrylamides; read-out: Umami EC50

Row | Compound | EC50
17 | COc1ccc(/C=C/C(=O)NC(C(C)C)C(C)C)cc1 [Example D1, (E)-N-(2,4-dimethylpentan-3-yl)-3-(4-methoxyphenyl)acrylamide] | 290 nM
18 | COC(=O)[C@@H](CC(C)C)NC(=O)/C=C/c1ccc(OC)cc1 [Example D2, (R,E)-methyl 2-(3-(4-methoxyphenyl)acrylamido)-4-methylpentanoate] | 320 nM
19 | CCCCC(NC(=O)/C=C/c1ccc(OC)cc1)C(=O)OC (centres unmarked) [Example D3, (E)-methyl 2-(3-(4-methoxyphenyl)acrylamido)hexanoate] | 630 nM
20 | CC(CCc1ccccc1)NC(=O)/C=C/c1cccs1 (centres unmarked) [Example D4, N-(1-Methyl-3-phenyl-propyl)-3-thiophen-2-yl-acrylamide] | 690 nM
21 | CCCC(CCC)NC(=O)/C=C/c1ccc(OC)cc1 [Example D5, (E)-N-(heptan-4-yl)-3-(4-methoxyphenyl)acrylamide] | 720 nM
22 | CCCC(CCC)NC(=O)/C=C/c1cccs1 [Example D6, N-(1-Propyl-butyl)-3-thiophen-2-yl-acrylamide] | 750 nM
23 | CCC(CC)NC(=O)/C=C/c1ccc(OC)cc1 [Example D7, (E)-3-(4-methoxyphenyl)-N-(pentan-3-yl)acrylamide] | 820 nM
24 | CCOc1ccc(/C=C/C(=O)N[C@@H](COC)CC(C)C)cc1 [Example D8, (R,E)-3-(4-ethoxyphenyl)-N-(1-methoxy-4-methylpentan-2-yl)acrylamide] | 940 nM
25 | CCC/C=C\C(=O)NC(CCC)CCC [Example D9, (Z)-N-(heptan-4-yl)hex-2-enamide] | 980 nM
26 | COC(=O)[C@@H](CC(C)C)NC(=O)/C=C/c1ccsc1 [Example D10, (R,E)-methyl 4-methyl-2-(3-(thiophen-3-yl)acrylamido)pentanoate] | 1090 nM
27 | COC(=O)[C@@H](CC(C)C)NC(=O)/C=C/c1ccccc1 [Example D11, (R)-methyl 2-cinnamamido-4-methylpentanoate] | 1170 nM
28 | CC(C)/C=C/C(=O)NC1CCCCC1C (centres unmarked) [Example D12, (E)-4-methyl-N-(2-methylcyclohexyl)pent-2-enamide] | 1280 nM
29 | CCOc1ccc(/C=C/C(=O)NC(C)CC)cc1 (centres unmarked) [Example D13, (E)-N-sec-butyl-3-(4-ethoxyphenyl)acrylamide] | 1310 nM
30 | CCC(COC)NC(=O)/C=C/c1ccc(OC)cc1 (centres unmarked) [Example D14, (E)-N-(1-methoxybutan-2-yl)-3-(4-methoxyphenyl)acrylamide] | 1430 nM
31 | CCCC(CCC)NC(=O)/C=C/c1ccsc1 [Example D15, (E)-N-(heptan-4-yl)-3-(thiophen-3-yl)acrylamide] | 1540 nM
32 | COc1ccc(/C=C/C(=O)NC(C)CCc2ccccc2)cc1OC (centres unmarked) [Example D16, (E)-3-(3,4-dimethoxyphenyl)-N-(4-phenylbutan-2-yl)acrylamide] | 1560 nM

same assay, conditions: opposite enantiomers compared; read-out: AFFINITY FOR T1R1/T1R3 SAVORY RECEPTOR EC50 UM

Row | Compound | EC50
33 | COc1ccc(C(=O)N[C@H]2CCc3ccccc32)cc1C [drawing 26, (S)-N-(2,3-dihydro-1H-inden-1-yl)-4-methoxy-3-methylbeuzamide] | 80 nM
34 | CCOc1ccc(C(=O)N[C@H]2CCc3ccccc32)cc1C [drawing 28, (S)-N-(2,3-dihydro-1H-inden-1-yl)-4-ethoxy-3-methylbenzamide] | 850 nM
35 | COc1cccc(C(=O)N[C@@H]2CCCc3ccccc32)c1N [drawing 29, (R)-2-amino-3-methoxy-N-(1,2,3,4-tetrahydronaphthalen-1-yl)benzamide] | 90 nM
